We go through ten compounds from ChEMBL document CHEMBL4371027, “Design, synthesis and anticonvulsant evaluation of fluorinated benzyl amino enaminones” (Bioorg Med Chem, 2019).

What is called ED50 is the midpoint of the dose-response relation.

The test system of data set [1] is Mus musculus. As to the kind of experiment: Anticonvulsant activity in F-1 albino mouse assessed as protection against 32 mA current-induced seizure at 30 mg/kg, ip pretreated at 2 hrs before current challenge by 6 Hz psychomotor seizure test. Type of data set: functional, organism-based.
Data set [2] relates to Mus musculus. As to the kind of experiment: Anticonvulsant activity in F-1 albino mouse assessed as protection against 32 mA current-induced seizure at 100 mg/kg, ip pretreated at 2 hrs before current challenge by 6 Hz psychomotor seizure test. The class given is functional, organism-based.
For data set [3], the system named is Mus musculus. The data set can be described thus: Anticonvulsant activity in F-1 albino mouse assessed as protection against 32 mA current-induced seizure at 30 mg/kg, ip pretreated at 0.5 hrs by maximal electroshock seizure test. The class given is functional, organism-based. In general terms: The maximal electroshock test induces tonic seizures with an electrical stimulus.

Data set [4] concerns Mus musculus. The data set can be described thus: Anticonvulsant activity in F-1 albino mouse assessed as protection against 32 mA current-induced seizure at 100 mg/kg, ip pretreated at 0.5 hrs by maximal electroshock seizure test. Type of data set: functional, organism-based.
Data set [5] has as its system Mus musculus. The data set can be described thus: Anticonvulsant activity in F-1 albino mouse assessed as protection against 32 mA current-induced seizure at 30 mg/kg, ip pretreated at 2 hrs by maximal electroshock seizure test. The class given is functional, organism-based.
The test system of data set [6] is Mus musculus. The data set can be described thus: Anticonvulsant activity in F-1 albino mouse assessed as protection against 32 mA current-induced seizure at 100 mg/kg, ip pretreated at 2 hrs by maximal electroshock seizure test. The class given is functional, organism-based.
Data set [7] relates to Mus musculus. The data set can be described thus: Anticonvulsant activity in F-1 albino mouse assessed as protection against 32 mA current-induced seizure at 300 mg/kg, ip pretreated at 2 hrs by maximal electroshock seizure test. Type of data set: functional, organism-based.
Data set [8] in a line: Neurotoxicity in F-1 albino mouse at 30 mg/kg, ip after 0.5 hrs by rotarod test. As to conditions: in vivo. Type of data set: toxicity, organism-based. (In the rotarod test animals must keep their balance on a rotating rod.)
A short description of data set [9]: Neurotoxicity in F-1 albino mouse at 100 mg/kg, ip after 0.5 hrs by rotarod test. Type of data set: toxicity, organism-based. To be noted: in vivo.
Data set [10] in a line: Neurotoxicity in F-1 albino mouse at 300 mg/kg, ip after 0.5 hrs by rotarod test. Type of data set: toxicity, organism-based. As to conditions: in vivo.
Data set [11] in a line: Neurotoxicity in F-1 albino mouse at 30 mg/kg, ip after 2 hrs by rotarod test. Type of data set: toxicity, organism-based. As to conditions: in vivo.
Data set [12] can be described thus: Neurotoxicity in F-1 albino mouse at 100 mg/kg, ip after 2 hrs by rotarod test. As to conditions: in vivo. Type of data set: toxicity, organism-based.
Data set [13] is described as follows: Neurotoxicity in F-1 albino mouse at 300 mg/kg, ip after 2 hrs by rotarod test. The class given is toxicity, organism-based. To be noted: in vivo.
In data set [14] the test system is Mus musculus. As to the kind of experiment: Anticonvulsant activity in ip dosed F-1 albino mouse assessed as protection against 32 mA current-induced seizure pretreated at 0.5 to 2 hrs by maximal electroshock seizure test. Type of data set: functional. As to conditions: F-1, ip.
Data set [15] deals with Mus musculus. The data set can be described thus: Anticonvulsant activity in F-1 albino mouse assessed as protection against 32 mA current-induced seizure at 100 mg/kg, ip pretreated at 0.5 hrs before current challenge by 6 Hz psychomotor seizure test. The class given is functional, organism-based.
Data set [16] has as its system Mus musculus. The data set can be described thus: Anticonvulsant activity in F-1 albino mouse assessed as protection against 32 mA current-induced seizure at 300 mg/kg, ip pretreated at 0.5 hrs by maximal electroshock seizure test. The class given is functional, organism-based.
In data set [17] the test system is Mus musculus. The data set can be described thus: Anticonvulsant activity in F-1 albino mouse assessed as protection against 32 mA current-induced seizure at 30 mg/kg, ip pretreated at 0.5 hrs before current challenge by 6 Hz psychomotor seizure test. The class given is functional, organism-based.
Data set [18] deals with Mus musculus. As to the kind of experiment: Anticonvulsant activity in F-1 albino mouse assessed as protection against 32 mA current-induced seizure at 300 mg/kg, ip pretreated at 0.5 hrs before current challenge by 6 Hz psychomotor seizure test. Type of data set: functional, organism-based.
Data set [19] concerns Mus musculus. As to the kind of experiment: Anticonvulsant activity in F-1 albino mouse assessed as protection against 32 mA current-induced seizure at 300 mg/kg, ip pretreated at 2 hrs before current challenge by 6 Hz psychomotor seizure test. The class given is functional, organism-based.

Active and inactive are the calls of the source. The calls are words filed in the database; no cut-off is given here.

Take `O=C1C=C(NCc2ccc(Br)cc2)CC(C(F)(F)F)C1` (configuration not stated): the outcome in data set [1], in [2], in [3], in data set [4], in data set [5] and in data set [6] was inactive. Moreover, the outcome in [7] was inactive. Also, the Activity entry in [8], in [9], in [10], in data set [11], in [12] and in [13] was “Non-Toxic” each time.
On to `O=C1C=C(Nc2ccc(Cl)cc2)CC(C(F)(F)F)C1` (configuration not stated), for which the Activity result in data set [8] and in data set [11] was “Non-Toxic” throughout. In [14], the ED50 was 62.4 mg/kg.
For the compound `O=C1C=C(NCc2cccc(OC(F)(F)F)c2)CC(C(F)(F)F)C1` (configuration not stated), the outcome in [15], in data set [1], in data set [2], in [4], in [5] and in [6] was inactive. For the same compound, the result in data set [16] and in data set [7] was Active. Moreover, the Activity entry in data set [8], in data set [9], in data set [10], in data set [11], in data set [12] and in [13] was “Non-Toxic” throughout.
As for `O=C1C=C(NCc2cccc(C(F)(F)F)c2)CC(C(F)(F)F)C1` (configuration not stated), the result in data set [17], in [1], in [3], in data set [4], in data set [5] and in [6] was inactive. Moreover, the outcome in data set [7] was inactive. Further, the Activity entry in data set [8], in data set [9], in [10], in data set [11], in [12] and in [13] was “Non-Toxic” in each case.
Turning to `O=C1C=C(NCc2cc(C(F)(F)F)cc(C(F)(F)F)c2)CC(C(F)(F)F)C1` (configuration not stated), the outcome in data set [2], in [3], in data set [4], in data set [16], in data set [5] and in [6] was inactive. Besides, the outcome in data set [7] was inactive. The Activity result in [8], in data set [9], in data set [10], in data set [11], in data set [12] and in [13] was “Non-Toxic” each time.
For `NC(=O)N1c2ccccc2C=Cc2ccccc21` [CARBAMAZEPINE], the 50% effective dose (ED50) in data set [14] was 28.2 mg/kg.
On to `COc1ccc(CNC2=CC(=O)CC(C(F)(F)F)C2)cc1` (configuration not stated), for which the result in [17], in data set [1], in data set [3], in data set [4], in data set [16] and in data set [5] was inactive. Further, the result in data set [6] and in data set [7] was inactive. The Activity entry in data set [8], in [9], in data set [10], in data set [11], in data set [12] and in data set [13] was “Non-Toxic” each time.
As for `O=C1C=C(NCc2cc(F)ccc2F)CC(C(F)(F)F)C1` (configuration not stated), the result in [17], in data set [1], in data set [2], in data set [3], in data set [4] and in data set [16] was inactive. Moreover, the outcome in [5], in data set [6] and in [7] was inactive. The result in [18] and in data set [19] was Active. Besides, the Activity entry in data set [8], in data set [9], in data set [10], in data set [11], in [12] and in data set [13] was “Non-Toxic” each time.
As for `O=C1C=C(NCc2ccc(F)c(C(F)(F)F)c2)CC(C(F)(F)F)C1` (configuration not stated), the result in [18] and in data set [19] was Active. Further, the outcome in data set [3], in data set [4], in data set [16], in data set [5], in data set [6] and in data set [7] was inactive. Moreover, the Activity entry in data set [8], in [9], in data set [10], in data set [11], in data set [12] and in data set [13] was “Non-Toxic” throughout. In data set [14], the median effective dose (ED50) came out at 23.5 mg/kg.
Take `O=C1C=C(Nc2ccc(Br)cc2C(=O)O)CC(C(F)(F)F)C1` (configuration not stated): the outcome in data set [17], in [1], in data set [2], in data set [3], in [4] and in data set [5] was inactive. The outcome in data set [6] and in data set [7] was inactive. The Activity result in data set [8], in data set [9], in [10], in data set [11], in data set [12] and in data set [13] was “Non-Toxic” throughout.
